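Exposure lasted 48 hours, with cells grown in 96-well plates and compounds tested at five concentrations. Here, GI50 denotes the concentration required for 50% inhibition of growth. At the TGI there is no net growth.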
Legend:
Assay in all cases: inhibition of tumour cell growth, NCI panel, 48 h
786-0 renal = system: 786-0 renal
COLO 205 colon = system: COLO 205 colon
SF-268 CNS = system: SF-268 CNS
OVCAR-5 ovarian = system: OVCAR-5 ovarian
ACHN renal = system: ACHN renal
SK-OV-3 ovarian = system: SK-OV-3 ovarian
HL-60(TB) leukemia = system: HL-60(TB) leukemia
NCI-H522 lung = system: NCI-H522 lung
CCRF-CEM leukemia = system: CCRF-CEM leukemia
SNB-75 CNS = system: SNB-75 CNS

## CC1(C)C(=O)/C=C\C(=O)C(C)(C)C2=CC=C(O2)C(C)(C)C(=O)/C=C\C(=O)C(C)(C)C2=CC=C1O2
786-0 renal
  TGI: > 100 µM
COLO 205 colon
  TGI: > 100 µM
SF-268 CNS
  TGI: > 100 µM
OVCAR-5 ovarian
  TGI: > 100 µM
ACHN renal
  TGI: > 100 µM
SK-OV-3 ovarian
  TGI: > 100 µM
HL-60(TB) leukemia
  TGI: > 100 µM
NCI-H522 lung
  TGI: > 100 µM
CCRF-CEM leukemia
  TGI: > 100 µM

## Cc1cc(NS(=O)(=O)c2ccc(Nc3c4ccccc4nc4c(C(=O)N5CCN(CCOS(C)(=O)=O)CC5)cccc34)cc2)no1
786-0 renal
  TGI: > 100 µM
COLO 205 colon
  TGI: > 100 µM
SF-268 CNS
  TGI: > 100 µM
OVCAR-5 ovarian
  TGI: > 100 µM
ACHN renal
  TGI: > 100 µM
SK-OV-3 ovarian
  TGI: > 100 µM
HL-60(TB) leukemia
  TGI: > 100 µM
SNB-75 CNS
  TGI: > 100 µM
CCRF-CEM leukemia
  TGI: > 100 µM

## COc1cnc2c(c1)C(=O)c1c-2n(CCCN2CCOCC2)c(=O)c2cc(F)ccc12
786-0 renal
  GI50: 0.254 µM
  TGI: 1.2 µM
SF-268 CNS
  GI50: 0.265 µM
  TGI: > 100 µM
ACHN renal
  GI50: 0.177 µM
  TGI: 0.6 µM
SK-OV-3 ovarian
  GI50: 0.282 µM
  TGI: 1.92 µM
HL-60(TB) leukemia
  GI50: 0.373 µM
  TGI: 2.85 µM
SNB-75 CNS
  GI50: 0.362 µM
  TGI: 9.7 µM
CCRF-CEM leukemia
  GI50: 0.0853 µM
  TGI: > 100 µM

## COC(=O)CC[N+]1=CCC(c2ccccc2)(c2ccccc2)O1
786-0 renal
  TGI: > 100 µM
COLO 205 colon
  TGI: > 100 µM
SF-268 CNS
  TGI: > 100 µM
OVCAR-5 ovarian
  TGI: > 100 µM
ACHN renal
  TGI: > 100 µM
SK-OV-3 ovarian
  TGI: > 100 µM
NCI-H522 lung
  TGI: > 100 µM

## OCC1=CC(NC2CC(CO)C(O)C(O)C2O)C(O)C(O)C1O (stereo not drawn)
786-0 renal
  TGI: > 100 µM
COLO 205 colon
  TGI: > 100 µM
ACHN renal
  TGI: > 100 µM
SK-OV-3 ovarian
  TGI: > 100 µM
NCI-H522 lung
  TGI: > 100 µM
SNB-75 CNS
  TGI: > 100 µM
CCRF-CEM leukemia
  TGI: > 100 µM

## COC1/C=C/OC2(C)Oc3c(C)c(O)c4c(O)c(c(/C=N/Nc5ccc([N+](=O)[O-])cc5[N+](=O)[O-])c(O)c4c3C2=O)NC(=O)C(C)=C/C=C/C(C)C(O)C(C)C(O)C(C)C(OC(C)=O)C1C (stereo not drawn)
786-0 renal
  GI50: 1.67 µM
  TGI: 7.02 µM
COLO 205 colon
  GI50: 2.8 µM
  TGI: 10.5 µM
SF-268 CNS
  GI50: 1.59 µM
  TGI: 11.4 µM
OVCAR-5 ovarian
  GI50: 3.59 µM
  TGI: 11.6 µM
ACHN renal
  GI50: 3.56 µM
  TGI: 11.4 µM
SK-OV-3 ovarian
  GI50: 10.6 µM
  TGI: 31.1 µM
SNB-75 CNS
  GI50: 1.8 µM
  TGI: 10.3 µM
CCRF-CEM leukemia
  GI50: 1.55 µM
  TGI: > 50 µM

## CCC[CH2][Sn]([CH2]CCC)([S]c1cccc2cccnc12)[S]c1cccc2cccnc12
786-0 renal
  GI50: 0.227 µM
  TGI: 0.56 µM
COLO 205 colon
  GI50: 0.0592 µM
  TGI: 0.224 µM
ACHN renal
  GI50: 0.193 µM
  TGI: 0.396 µM
SK-OV-3 ovarian
  GI50: 0.324 µM
  TGI: 1.18 µM
SNB-75 CNS
  GI50: 0.234 µM
  TGI: 0.926 µM
CCRF-CEM leukemia
  GI50: 0.035 µM
  TGI: 0.285 µM

## CCC(=O)[C@H](C)[C@@H](OC(=O)[C@H](C)CC)[C@H](C)[C@H]1OC(CC)=C(C)C(=O)[C@@H]1C
786-0 renal
  GI50: 25.5 µM
  TGI: 84.2 µM
COLO 205 colon
  GI50: 14.9 µM
  TGI: 29.3 µM
SF-268 CNS
  GI50: 25.3 µM
  TGI: > 100 µM
OVCAR-5 ovarian
  GI50: 15.4 µM
  TGI: 48 µM
ACHN renal
  GI50: 30 µM
  TGI: > 100 µM
SK-OV-3 ovarian
  GI50: 37.1 µM
  TGI: > 100 µM
HL-60(TB) leukemia
  GI50: 15.3 µM
  TGI: 40.3 µM
SNB-75 CNS
  GI50: 31.8 µM
  TGI: 80.3 µM
CCRF-CEM leukemia
  GI50: 19.7 µM
  TGI: 44.8 µM

## OCCN(CCO)c1ncnc2c1ncn2Cc1ccc(CCl)cc1
786-0 renal
  GI50: 20.4 µM
  TGI: 37.8 µM
COLO 205 colon
  GI50: 18.2 µM
  TGI: 46.8 µM
SF-268 CNS
  GI50: 19.8 µM
  TGI: 49.8 µM
OVCAR-5 ovarian
  GI50: 14.1 µM
  TGI: 27.8 µM
ACHN renal
  GI50: 14.9 µM
  TGI: 28.5 µM
NCI-H522 lung
  GI50: 18.5 µM
  TGI: 46.6 µM
SNB-75 CNS
  GI50: 20.3 µM
  TGI: 40.9 µM
CCRF-CEM leukemia
  GI50: 11 µM
  TGI: 47.1 µM
